According to US7863465B2, “Antifungal agents” (Merck Sharp & Dohme Corp., priority 2006, dated 2011):

These molecules were tested against T1, glucan synthase (GS) prepared from Candida albicans MY1055 (Candida albicans, UniProt O13428) (assay: Glucan synthase inhibition (polymerization assay, 96-well, 3H-UDPG incorporation)). Conditions: glucan synthase from C. albicans MY1055.
T1 construct: Extraction of GS activity from membranes was performed at a protein concentration of 5 mg/mL in extraction buffer; endogenous in cells; host or cells: Candida albicans MY1055 (membranes, detergent extract, product entrapment)
T1 sequence (O13428 1-1897): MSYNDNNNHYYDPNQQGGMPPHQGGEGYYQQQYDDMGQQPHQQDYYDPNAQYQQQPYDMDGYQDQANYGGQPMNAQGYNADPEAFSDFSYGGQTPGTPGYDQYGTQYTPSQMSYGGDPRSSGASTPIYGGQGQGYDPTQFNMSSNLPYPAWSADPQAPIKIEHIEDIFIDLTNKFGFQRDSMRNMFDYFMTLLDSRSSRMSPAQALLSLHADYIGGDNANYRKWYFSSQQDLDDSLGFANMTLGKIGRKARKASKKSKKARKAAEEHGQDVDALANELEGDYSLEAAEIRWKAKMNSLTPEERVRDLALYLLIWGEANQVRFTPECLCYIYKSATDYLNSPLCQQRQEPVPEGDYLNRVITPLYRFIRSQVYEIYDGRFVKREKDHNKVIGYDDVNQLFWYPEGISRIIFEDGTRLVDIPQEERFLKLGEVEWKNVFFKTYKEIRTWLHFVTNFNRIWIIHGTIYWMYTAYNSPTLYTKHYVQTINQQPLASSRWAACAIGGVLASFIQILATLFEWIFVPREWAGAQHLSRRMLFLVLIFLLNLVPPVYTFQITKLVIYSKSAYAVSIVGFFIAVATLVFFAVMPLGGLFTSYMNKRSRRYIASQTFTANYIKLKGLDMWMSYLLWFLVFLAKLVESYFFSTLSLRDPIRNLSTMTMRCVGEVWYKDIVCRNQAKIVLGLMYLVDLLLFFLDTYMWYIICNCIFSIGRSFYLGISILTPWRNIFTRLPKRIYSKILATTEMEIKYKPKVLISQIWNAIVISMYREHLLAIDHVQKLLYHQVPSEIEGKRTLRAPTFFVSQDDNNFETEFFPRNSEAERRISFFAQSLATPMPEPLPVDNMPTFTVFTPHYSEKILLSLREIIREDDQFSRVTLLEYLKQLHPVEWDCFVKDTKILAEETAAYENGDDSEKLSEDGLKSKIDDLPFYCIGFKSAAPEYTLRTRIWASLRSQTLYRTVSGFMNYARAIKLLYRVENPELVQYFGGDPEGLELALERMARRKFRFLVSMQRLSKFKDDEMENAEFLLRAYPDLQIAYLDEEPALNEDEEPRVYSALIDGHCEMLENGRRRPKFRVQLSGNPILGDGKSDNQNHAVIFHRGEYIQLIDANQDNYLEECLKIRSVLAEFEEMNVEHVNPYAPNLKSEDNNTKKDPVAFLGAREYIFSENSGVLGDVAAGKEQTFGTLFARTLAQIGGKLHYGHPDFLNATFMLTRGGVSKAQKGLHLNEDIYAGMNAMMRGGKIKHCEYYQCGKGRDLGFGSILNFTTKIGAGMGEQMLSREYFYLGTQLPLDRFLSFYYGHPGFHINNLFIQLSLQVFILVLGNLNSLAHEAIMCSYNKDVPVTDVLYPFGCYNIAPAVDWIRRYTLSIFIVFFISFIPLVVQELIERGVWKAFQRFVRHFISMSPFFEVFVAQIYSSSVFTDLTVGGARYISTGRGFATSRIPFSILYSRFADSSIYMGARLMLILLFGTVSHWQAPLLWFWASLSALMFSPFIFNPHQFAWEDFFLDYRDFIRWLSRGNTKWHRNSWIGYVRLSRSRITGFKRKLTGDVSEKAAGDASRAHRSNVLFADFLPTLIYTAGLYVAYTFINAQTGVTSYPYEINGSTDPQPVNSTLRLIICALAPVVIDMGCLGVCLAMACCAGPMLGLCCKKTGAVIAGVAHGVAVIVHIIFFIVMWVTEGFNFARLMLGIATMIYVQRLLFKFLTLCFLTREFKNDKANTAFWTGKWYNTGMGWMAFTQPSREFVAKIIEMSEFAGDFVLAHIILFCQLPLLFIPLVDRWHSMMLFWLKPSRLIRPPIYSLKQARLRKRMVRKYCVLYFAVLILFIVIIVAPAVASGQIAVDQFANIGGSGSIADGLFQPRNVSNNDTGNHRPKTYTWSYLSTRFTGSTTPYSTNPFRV
T1 sequence (O42825 whole entry partner): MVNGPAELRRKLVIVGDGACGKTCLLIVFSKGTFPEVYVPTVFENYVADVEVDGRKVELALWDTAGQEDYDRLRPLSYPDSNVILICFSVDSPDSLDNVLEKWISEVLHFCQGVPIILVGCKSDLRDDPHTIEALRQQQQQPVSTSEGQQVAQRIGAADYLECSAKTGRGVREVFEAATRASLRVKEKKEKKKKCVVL
Assay type: biochemical
Procedure: The in vitro evaluation of glucan synthase inhibitory activity of compounds was measured in a polymerization assay in 96-well format. Each well contained 100 μL of ^3H-UDPG at 0.5 mM (6000 to 8000 dpm/nmol), 50 mM HEPES pH 7.5 (Sigma), 10% w/v glycerol (Sigma), 1.5 mg/mL bovine serum albumin (Sigma A 9647. Lot 44H0190), 25 mM KF (Fisher), 1 mM EDTA (Gibco Ultrapure), 25 μM GTP-γ-S, enzyme sufficient to give 3 to 6 nmoles incorporation during the 60 min incubation at 22° C., and test compound added from wells in 3-fold serial dilutions in 100% DMSO (1 μL/well). The reaction was stopped by the addition of 100 μL of 20% trichloroacetic acid. Plates were chilled for a minimum of 10 min, and precipitated glucan collected by filtration on GF/C plates (Packard Unifilter®-96), washed with 5 cycles of water (about 1 mL/well each cycle) using a Packard Filtermate Harvester. 40 μL/well scintillation fluid (Packard Ultima Gold TM-XR) was added and the sealed plates counted in a Wallac Beta counter in top-counting mode at an efficiency of approximately 40%.
Stock solutions were stored at 10 mg/mL in DMSO at −20° C. For each new enzyme preparation, the initial titration performed started at 1 mg/mL, which was prepared by making a 10-fold dilution in DMSO (5 μL to 50 μL). 40 μL of this stock was placed in column 12 of a round-bottomed 96-well microtiter plate. 40 μL DMSO was added to columns 1 to 11 in the same row and ten 3-fold serial dilutions performed, by transferring 20 μL from column 12 to column 11 etc., with 4 mixings before each transfer. No test compound was transferred to from column 2 to column 1. Duplicate aliquots of 1 μL of all 12 dilutions were then transferred to the side walls of a 96-well Bioblock 1.1 mL plate (Fisherbrand) to create two rows.
The results were tabulated and a standard plate background was subtracted and the net count transpose-pasted into a Prism file, with final compound concentrations used in ng/mL. Graphs were created in Prism software, using the average of two determinations, and using Prism's curve fitting program (sigmoidal dose response non-linear regression).
Routine analysis was performed with glucan synthase (GS) prepared from Candida albicans MY1055 by the following procedure: MY1055 was grown in 10 liters YPD medium (10 g yeast extract, 20 g tryptone, 20 g glucose per liter) with vigorous shaking at 30° C., to early stationary phase. Cells were harvested by centrifugation, the pellet was washed and frozen at −70° C. until breakage. Thawed pellets were shaken with an equal volume of breakage buffer (50 mM HEPES pH 7.4, 10% glycerol, 1 mM EDTA, 1 mM PMSF, 1 mM DTT) and 4 times their weight of 0.5 mm acid washed glass beads for 2 hours at 4° C. Extent of breakage was assessed visually at 40× magnification. For C. parapsilosis strains, shaking was extended to 3 hours to maximize breakage. After low speed centrifugation to remove cell debris, the supernatant was centrifuged at 100,000×g for 60 min. to separate membranes plus ribosomes from cytoplasmic components. Membranes were further washed two additional times with breakage buffer using the same centrifugation conditions and finally suspended in breakage buffer at 25 to 30 mg/mL protein (Biorad) for storage at −70° C. Extraction of GS activity from membranes was performed at a protein concentration of 5 mg/mL in extraction buffer (50 mM NaPO4 pH 7.5, 0.1 M KCl, 0.1M Na citrate, 20% glycerol, 5 μM GTP-γ-S, 1 mM DTT, 1 mM PMSF, 3 μg/mL pepstatin) plus 0.25% W1 by gentle mixing at 4° C. for 60 min, followed by centrifugation at 100,000×g for 60 min. After centrifugation, clear supernatant was removed from a pellet consisting of a hard layer usually with small amounts of gelatinous unextracted membranes above it. […]

| SMILES | IC50 [nM] |
| --- | --- |
| COCC(CO[C@H]1[C@H](OC(C)=O)C[C@@]23COC[C@]1(C)[C@@H]2CC[C@H]1C3=CC(=O)[C@@]2(C)[C@H](C(=O)O)[C@@](C)([C@H](C)C(C)C)CC[C@]12C)N(C)C (stereo partly drawn) [Example 65, (1S,2R,3R,4aR,6aS,7R,8R,10aR,10bR,12aR)-3-(acetyloxy)-2-(2-dimethylamino-3-methoxypropoxy)-8-[(1R)-1,2-dimethylpropyl]-1,6a,8,10a-tetramethyl-6-oxo-1,3,4,6,6a,7,8,9,10,10a,10b,11,12,12a-tetradecahydro-2H-1,4a-(methanooxymethano)chrysene-7-carboxylic acid] | 161 |
| CC(=O)O[C@@H]1C[C@@]23COC[C@@](C)([C@@H]2CC[C@H]2C3=CC(=O)[C@@]3(C)[C@H](C(=O)O)[C@@](C)([C@H](C)C(C)C)CC[C@]23C)[C@H]1OCC(CN)CN(C)C (stereo partly drawn) [Example 68, (1S,2R,3R,4aR,6aS,7R,8R,10aR,10bR,12aR)-3-(acetyloxy)-2-(2-aminomethyl-3-dimethylaminopropoxy)-8-[(1R)-1,2-dimethylpropyl]-1,6a,8,10a-tetramethyl-6-oxo-1,3,4,6,6a,7,8,9,10,10a,10b,11,12,12a-tetradecahydro-2H-1,4a-(methanooxymethano)chrysene-7-carboxylic acid] | 205 |
| CC(=O)O[C@@H]1C[C@@]23COC[C@](C)([C@@H]2CC[C@H]2C3=CC(=O)[C@@]3(C)[C@H](C(=O)O)[C@@](C)([C@H](C)C(C)C)CC[C@]23C)[C@H]1OCC(C)NCc1ccc(CO)o1 (stereo partly drawn) [Example 71, (1S, 2R, 3R, 4aR, 6aS, 7R, 8R, 10aR, 10bR, 12aR)-3-(acetyloxy)-2-{2-[(5-hydroxymethylfuran-2-ylmethyl)-amino]-propoxy}-8-[(1R)-1,2-dimethylpropyl]-1,6a,8,10a-tetramethyl-6-oxo-1,3,4,6,6a,7,8,9,10,10a,10b,11, 12,12a-tetradecahydro-2H-1,4a-(methanooxymethano)chrysene-7-carboxylic acid] | 343 |
| CCCN(CCC)C(CC)COC1C(OC(C)=O)CC23COCC1(C)C2CCC1C3=CC(=O)C2(C)C(C(=O)O)C(C)(C(C)C(C)C)CCC12C [Example 81, (1S, 2R, 3R, 4aR, 6aS, 7R, 8R, 10aR, 10bR, 12aR)-3-(acetyloxy)-2-(2-dipropylaminobutoxy)-8-[(1R)-1,2-dimethylpropyl]-1,6a,8, 10a-tetramethyl-6-oxo-1,3,4,6,6a,7,8,9,10,10a, 10b,11,12,12a-tetra decahydro-2H-1,4a-(methanooxymethano) chrysene-7-carboxylic acid] | 497 |
| CC(=O)O[C@@H]1C[C@@]23COC[C@](C)([C@@H]2CC[C@H]2C3=CC(=O)[C@@]3(C)[C@H](C(=O)O)[C@@](C)([C@H](C)C(C)C)CC[C@]23C)[C@H]1OCC(C(C)C)N1CCCCC1 (stereo partly drawn) [Example 89, (1S, 2R, 3R, 4aR, 6aS, 7R, 8R, 10aR, 10bR, 12aR)-3-(acetyloxy)-2-(3-methyl-2-piperidin-1-ylbutoxy)-8-[(1R)-1,2-dimethylpropyl]-1,6a,8, 10a-tetramethyl-6-oxo-1,3,4,6,6a,7,8,9,10,10a, 10b,11,12,12a-tetra decahydro-2H-1,4a-(methanooxymethano) chrysene-7-carboxylic acid] | 166 |
| CC(=O)O[C@@H]1C[C@@]23COC[C@](C)([C@@H]2CC[C@H]2C3=CC(=O)[C@@]3(C)[C@H](C(=O)O)[C@@](C)([C@H](C)C(C)C)CC[C@]23C)[C@H]1OCCCN [Example 109, (1S, 2R, 3R, 4aR, 6aS, 7R, 8R, 10aR, 10bR, 12aR)-3-(acetyloxy)-2-(3-aminopropoxy)-8-[(1R)-1,2-dimethylpropyl]-1,6a,8,10a-tetramethyl-6-oxo-1,3,4,6,6a,7,8,9, 10,10a,10b,11,12,12a-tetradeca hydro-2H-1,4a-(methanooxymethano) chrysene-7-carboxylic acid] | 155 |
| CC(=O)O[C@@H]1C[C@@]23COC[C@@](C)([C@@H]2CC[C@H]2C3=CC(=O)[C@@]3(C)[C@H](C(=O)O)[C@@](C)([C@H](C)C(C)C)CC[C@]23C)[C@H]1OC[C@@](C)(N)C(C)C [Example 148, (1S,2R,3R,4aR,6aS,7R,8R,10aR,10bR,12aR)-3-acetoxy-2-[[(2S)-2-amino-2,3-dimethylbutyl]oxy]-8-[(1R)-1,2-dimethylpropyl]-1,6a,8,10a-tetramethyl-6-oxo-1,3,4,6,6a,7,8,9,10,10a,10b,11,12,12a-tetradecahydro-2H-1,4a-(methanooxymethano)chrysene-7-carboxylic acid] | 20.2 |

Second part, the molecule after the results:

| IC50 [nM] | SMILES |
| --- | --- |
| 80.8 | CC(=O)O[C@@H]1C[C@@]23COC[C@@](C)([C@@H]2CC[C@H]2C3=CC(=O)[C@@]3(C)[C@H](C(=O)O)[C@@](C)([C@H](C)C(C)C)CC[C@]23C)[C@H]1OCC(C)(C)N(C)C [Example 114, (1S,2R,3R,4aR,6aS,7R,8R,10aR,10bR,12aR)-3-(acetyloxy)-2-(2-diamino-2-methylpropoxy)-8-[(1R)-1,2-dimethylpropyl]-1,6a,8,10a-tetramethyl-6-oxo-1,3,4,6,6a,7,8,9,10,10a,10b,11,12,12a-tetradecahydro-2H-1,4a-(methanooxymethano)chrysene-7-carboxylic acid] |
| 91.2 | CCC(C)(CO[C@H]1[C@H](OC(C)=O)C[C@@]23COC[C@]1(C)[C@@H]2CC[C@H]1C3=CC(=O)[C@@]2(C)[C@H](C(=O)O)[C@@](C)([C@H](C)C(C)C)CC[C@]12C)N(C)C (stereo partly drawn) [Example 128, (1S, 2R, 3R, 4aR, 6aS, 7R, 8R, 10aR, 10bR, 12aR)-3-(acetyloxy)-2-(2-dimethylamino-2-methylbutyloxy)-8-[(1R)-1,2-dimethylpropyl]-1,6a,8,10a-tetramethyl-6-oxo-1,3,4,6,6a,7,8,9,10, 10a,10b,11,12,12a-tetradecahydro-2H-1,4a-(methanooxymethano)chrysene-7-carboxylic acid] |
| 19.8 | CN[C@](C)(CO[C@H]1[C@H](OC(C)=O)C[C@@]23COC[C@@]1(C)[C@@H]2CC[C@H]1C3=CC(=O)[C@@]2(C)[C@H](C(=O)O)[C@@](C)([C@H](C)C(C)C)CC[C@]12C)C(C)C [Example 149, (1S,2R,3R,4aR,6aS,7R,8R,10aR,10bR,12aR)-3-(acetyloxy)-2-[(2S)-2-methylamino-2,3-dimethylbutyloxy]-8-[(1R)-1,2-dimethylpropyl]-1,6a,8,10a-tetramethyl-6-oxo-1,3,4,6,6a,7,8,9,10,10a,10b,11,12,12a-tetradecahydro-2H-1,4a-(methanooxymethano)chrysene-7-carboxylic acid] |
| 20.8 | CC(=O)O[C@@H]1C[C@@]23COC[C@@](C)([C@@H]2CC[C@H]2C3=CC(=O)[C@@]3(C)[C@H](C(=O)O)[C@@](C)([C@H](C)C(C)C)CC[C@]23C)[C@H]1OC[C@](C)(C(C)C)N(C)C [Example 150, (1S,2R,3R,4aR,6aS,7R,8R,10aR,10bR,12aR)-3-(acetyloxy)-2-[(2S)-2-dimethylamino-2,3-dimethylbutyloxy]-8-[(1R)-1,2-dimethylpropyl]-1,6a,8,10a-tetramethyl-6-oxo-1,3,4,6,6a,7,8,9,10,10a,10b,11,12,12a-tetradecahydro-2H-1,4a-(methanooxymethano)chrysene-7-carboxylic acid] |
